From PubChem BioAssay (NCI)
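All cell lines were grown in 96-well plates and treated with compound for 48 hours. GI50 = concentration required for 50% inhibition of growth. TGI denotes the concentration required for complete inhibition of growth.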

Key:
Test in all cases: inhibition of tumour cell growth, NCI panel, 48 h
[1] = test system: COLO 205 colon
[2] = test system: U251 CNS
[3] = test system: OVCAR-3 ovarian
[4] = test system: UACC-257 melanoma
[5] = test system: PC-3 prostate
[6] = test system: A498 renal
[7] = test system: RXF 393 renal
[8] = test system: SNB-75 CNS
[9] = test system: IGROV1 ovarian
[10] = test system: NCI/ADR-RES ovarian
[11] = test system: SNB-19 CNS
[12] = test system: MDA-MB-435
[13] = test system: NCI-H522 lung
[14] = test system: MOLT-4 leukemia
[15] = test system: HT29 colon
[16] = test system: SF-268 CNS
[17] = test system: SR leukemia
[18] = test system: HCT-116 colon
[19] = test system: SF-539 CNS
[20] = test system: SK-MEL-28 melanoma
[21] = test system: LOX IMVI melanoma
[22] = test system: RPMI-8226 leukemia
[23] = test system: SK-OV-3 ovarian
[24] = test system: CCRF-CEM leukemia
[25] = test system: HOP-92 NSCLC
[26] = test system: K-562 leukemia
[27] = test system: HOP-62 NSCLC
[28] = test system: KM12 colon

With `N=C(N)N=Nc1ccc(NN=C(N)N)c2c1ncc1c2nc2sccn21` the GI50 [1] was 40.6 µM, the TGI [1] was > 100 µM and the GI50 [2] was 23.2 µM. For the same compound, the TGI [2] was > 100 µM, the GI50 [3] was 18.8 µM and the TGI [3] was > 100 µM. It also gave a GI50 [4] of 18.6 µM, a TGI [4] of 40.6 µM and a GI50 [5] of 27 µM. For the same compound, the TGI [5] was 99.5 µM, the GI50 [6] was 24.2 µM and the TGI [6] was 80 µM. It also gave a GI50 [7] of 8.98 µM, a TGI [7] of 34.6 µM and a GI50 [8] of 25.9 µM. For the same compound, the TGI [8] was > 100 µM, the GI50 [9] was 8.7 µM and the TGI [9] was > 100 µM. The GI50 [10] was 28.6 µM, the TGI [10] was > 100 µM and the GI50 [11] was > 100 µM. For the same compound, the TGI [11] was > 100 µM, the GI50 [12] was 19.5 µM and the TGI [12] was 52.1 µM. For the same compound, the GI50 [13] was 22.1 µM, the TGI [13] was > 100 µM and the GI50 [14] was 80.3 µM. For the same compound, the TGI [14] was > 100 µM, the GI50 [15] was 55.6 µM and the TGI [15] was > 100 µM. The GI50 [16] was 10.7 µM, the TGI [16] was 35.9 µM and the GI50 [17] was > 100 µM. The TGI [17] was > 100 µM, the GI50 [18] was 25.8 µM and the TGI [18] was > 100 µM. The GI50 [19] was 21 µM, the TGI [19] was 94.8 µM and the GI50 [20] was 30.6 µM. The TGI [20] was 95 µM, the GI50 [21] was 21.1 µM and the TGI [21] was > 100 µM. The GI50 [22] was 14 µM, the TGI [22] was 91.2 µM and the GI50 [23] was 93.4 µM. For the same compound, the TGI [23] was > 100 µM, the GI50 [24] was 20.8 µM and the TGI [24] was > 100 µM. It also gave a GI50 [25] of 25.5 µM, a TGI [25] of 65.4 µM and a GI50 [26] of 31.4 µM. The TGI [26] was > 100 µM, the GI50 [27] was 29.6 µM and the TGI [27] was > 100 µM. For the same compound, the GI50 [28] was 21.9 µM and the TGI [28] was > 100 µM.
